Laboratory results from PubChem BioAssay AID330 (DTP/NCI, 2004).
Toxic doses and inconclusive results are not listed. Rule for the calls: active = survival T/C of 150% or more; inactive = T/C below 125% in these data.

Test system: P388 leukemia ip, CD2F1 mice, survival T/C
Test: NCI In Vivo Anticancer Drug Screen. Data for tumor model P388 Leukemia (intraperitoneal) in CD2F1 (CDF1) mice
Conditions: endpoint: median survival time, higher = longer survival
Summary of the method: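 Mice carrying the transplanted tumor received test compound or vehicle. Survival was recorded in each group, and the value is the treated-group measurement divided by that of the vehicle-treated control group.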

[1] = dose: 60.0 mg/kg/injection, schedule: Q01DX005 (ip), vehicle: saline with Tween-80
[2] = dose: 120.0 mg/kg/injection, schedule: Q01DX005 (ip), vehicle: saline with Tween-80

Measured: T/C

CC1CCC23C1CC(CC(=O)C2(C)O)C3(C)C (centres undefined)
inactive: [1] 100 % of control | [2] 97 % of control | dose: 240.0 mg/kg/injection, schedule: Q01DX005 (ip), vehicle: saline with Tween-80 106 % of control

O=C1Nc2ncnc(Cl)c2Cc2ccccc21
inactive: dose: 50.0 mg/kg/injection, schedule: Q01DX009 (ip), vehicle: saline with Tween-80 100 % of control | dose: 100.0 mg/kg/injection, schedule: Q01DX009 (ip), vehicle: saline with Tween-80 104 % of control | dose: 200.0 mg/kg/injection, schedule: Q01DX009 (ip), vehicle: saline with Tween-80 104 % of control

OCCCC(=S)NCCNC(=S)CCCO
inactive: dose: 60.0 mg/kg/injection, schedule: Q01DX005 (ip), vehicle: Klucel (hydroxypropylcellulose) (HPC) 101 % of control | dose: 120.0 mg/kg/injection, schedule: Q01DX005 (ip), vehicle: Klucel (hydroxypropylcellulose) (HPC) 92 % of control | dose: 240.0 mg/kg/injection, schedule: Q01DX005 (ip), vehicle: Klucel (hydroxypropylcellulose) (HPC) 101 % of control

O=C(/N=C1\N=Nc2nc(C3(c4nc5n(c4O)/C(=N/C(=O)Nc4ccc(Cl)cc4)N=N5)CCCC3=O)c(O)n21)Nc1ccc(Cl)cc1 (centres undefined)
inactive: [1] 91 % of control | [2] 86 % of control

COC(=O)C1=CO[C@@H](OC2OC(CO)C(O)C(O)C2O)[C@H]2[C@@H]1C=C[C@@]21C=C([C@@H](C)O)C(=O)O1 (some centres undefined)
inactive: dose: 1.63 mg/kg/injection, schedule: Q01DX005 (ip), vehicle: Klucel (hydroxypropylcellulose) (HPC) 99 % of control | dose: 3.25 mg/kg/injection, schedule: Q01DX005 (ip), vehicle: Klucel (hydroxypropylcellulose) (HPC) 101 % of control | dose: 6.5 mg/kg/injection, schedule: Q01DX005 (ip), vehicle: Klucel (hydroxypropylcellulose) (HPC) 101 % of control | dose: 13.0 mg/kg/injection, schedule: Q01DX005 (ip), vehicle: Klucel (hydroxypropylcellulose) (HPC) 95 % of control

N/C(=N\OC(=O)Nc1cccc(Cl)c1)C(Cl)(Cl)Cl
inactive: dose: 25.0 mg/kg/injection, schedule: Q01DX009 (ip), vehicle: Klucel (hydroxypropylcellulose) (HPC) 98 % of control | dose: 50.0 mg/kg/injection, schedule: Q01DX009 (ip), vehicle: Klucel (hydroxypropylcellulose) (HPC) 113 % of control | dose: 100.0 mg/kg/injection, schedule: Q01DX009 (ip), vehicle: Klucel (hydroxypropylcellulose) (HPC) 112 % of control

CN1C(c2ccccc2)C2CCCC(C1c1ccccc1)C21NC(=O)NC1=O (centres undefined)
inactive: dose: 100.0 mg/kg/injection, schedule: Q01DX001 (ip), vehicle: saline with Tween-80 97 % of control | dose: 200.0 mg/kg/injection, schedule: Q01DX001 (ip), vehicle: saline with Tween-80 94 % of control | dose: 400.0 mg/kg/injection, schedule: Q01DX001 (ip), vehicle: saline with Tween-80 94 % of control

Nc1c(S(=O)(=O)O)cc(Nc2ccc(S(=O)(=O)O)c(Nc3nc(Cl)nc(Cl)n3)c2)c2c1C(=O)c1ccccc1C2=O
inactive: dose: 60.0 mg/kg/injection, schedule: Q01DX005 (ip), vehicle: saline 118 % of control | dose: 120.0 mg/kg/injection, schedule: Q01DX005 (ip), vehicle: saline 110 % of control | dose: 240.0 mg/kg/injection, schedule: Q01DX005 (ip), vehicle: saline 110 % of control
